# Assay results from patent US8497278B2, “Imidazo[1,2-a]pyridine compounds” (priority 2008, dated 2013).
# System: central benzodiazepine receptors
# Assay: Central benzodiazepine receptor binding (test of Speth et al.)
# Settings: 1000 nM of the compound
# Experimental: Compounds of the invention were assessed for their binding to the benzodiazepine receptor by the test of Speth et al. [Life Sci. 24, 351 (1979)] for central benzodiazepine receptors and LeFur et al. [Life Sci. 33, 449 (1983)] for peripheral receptors. The compounds were tested first at 1.0E-09, 1.0E-07 and 1.0E-05 M in single determination. […] The specific ligand binding to the receptor is defined as the difference between the total binding and the nonspecific binding determined in the presence of an excess of unlabelled ligand. In each experiment, the respective reference compound was tested concurrently with the test compounds in order to assess the assay suitability. It was tested at several concentrations (for IC50 value determination), and the data were compared with historical values. The assay was rendered valid if suitability criteria were met.
# BZD central binding data for the compounds is provided in Table 3, wherein is provided the percent inhibition of central BZD in the presence of 1000 nM of the compound.
row,SMILES,% Inhibition at 1000 nM for CBZD
1,"c1ccc(-c2nc3ccccn3c2Cn2nccn2)cc1 [Compound 51, 3-((2H-1,2,3-triazol-2-yl)methyl)-2-phenylH-imidazo[1,2-a]pyridine]",++ (percentage of inhibition of central BZD site binding is greater than 80% in the presence of 1000 nM of the compound)
2,"Fc1ccc(-c2nc3ccccn3c2Cn2cncn2)cc1 [Compound 54, 3-((1H-1,2,4-triazol-1-yl)methyl)-2-(4-fluorophenyl)H-imidazo[1,2-a]pyridine]",++ (percentage of inhibition of central BZD site binding is greater than 80% in the presence of 1000 nM of the compound)
3,"Fc1ccc2nc(-c3ccc(Cl)cc3)c(Cn3cncn3)n2c1 [Compound 55, 3-((1H-1,2,4-triazol-1-yl)methyl)-2-(4-chlorophenyl)-6-fluoroH-imidazo[1,2-a]pyridine]",++ (percentage of inhibition of central BZD site binding is greater than 80% in the presence of 1000 nM of the compound)
4,"Cc1ccc(-c2nc3c(Cl)cc(Cl)cn3c2Cn2cccn2)cc1 [Compound 65, 3-((1H-pyrazol-1-yl)methyl)-6,8-dichloro-2-p-tolylimidazo[1,2-a]pyridine]",++ (percentage of inhibition of central BZD site binding is greater than 80% in the presence of 1000 nM of the compound)
5,"Clc1ccc(-c2nc3ccccn3c2Cn2cncn2)cc1 [Compound 67, 3-((1H-1,2,4-triazol-1-yl)methyl)-2-(4-chlorophenyl)imidazo[1,2-a]pyridine]",++ (percentage of inhibition of central BZD site binding is greater than 80% in the presence of 1000 nM of the compound)
6,"CNC(=O)c1ncnn1Cc1c(-c2ccc(C)cc2)nc2ccc(C)cn12 [Compound 68, 2-(6-Methyl-2-p-tolyl-imidazo[1,2-a]pyridin-3-ylmethyl)-2H-[1,2,4]triazole-3-carboxylic acid methylamide]",++ (percentage of inhibition of central BZD site binding is greater than 80% in the presence of 1000 nM of the compound)
7,"Cc1ccc(-c2nc3ccc(C)cn3c2Cn2ncnc2C(N)=O)cc1 [Compound 69, 2-(6-Methyl-2-p-tolyl-imidazo[1,2-a]pyridin-3-ylmethyl)-2H-[1,2,4]triazole-3-carboxylic acid amide]",++ (percentage of inhibition of central BZD site binding is greater than 80% in the presence of 1000 nM of the compound)
8,"Cc1ccc(-c2nc3ccc(C)cn3c2Cn2ncnc2C(=O)N(C)C)cc1 [Compound 70, 2-(6-Methyl-2-p-tolyl-imidazo[1,2-a]pyridin-3-ylmethyl)-2H-[1,2,4]triazole-3-carboxylic acid dimethylamide]",+ (percentage of inhibition of central BZD site binding is greater than 50% but less than 80% in the presence of 1000 nM of the compound)
9,"Cc1ccc(-c2nc3ccc(C)cn3c2Cn2ccnc2C(=O)N(C)C)cc1 [Compound 71, N,N-Dimethyl-1-((6-methyl-2-p-tolylH-imidazo[1,2-a]pyridin-3-yl)methyl)-1H-imidazole-2-carboxamide]",+ (percentage of inhibition of central BZD site binding is greater than 50% but less than 80% in the presence of 1000 nM of the compound)
10,"CN(C)C(=O)c1ncnn1Cc1c(-c2ccc(Cl)cc2)nc2ccccn12 [Compound 74, 1-((2-(4-chlorophenyl)imidazo[1,2-a]pyridin-3-yl)methyl)-N,N-dimethyl-1H-1,2,4-triazole-5-carboxamide]",++ (percentage of inhibition of central BZD site binding is greater than 80% in the presence of 1000 nM of the compound)
11,"CN(C)C(=O)c1ncn(Cc2c(-c3ccc(Cl)cc3)nc3ccccn23)n1 [Compound 75, 1-((2-(4-chlorophenyl)imidazo[1,2-a]pyridin-3-yl)methyl)-N,N-dimethyl-1H-1,2,4-triazole-3-carboxamide]",++ (percentage of inhibition of central BZD site binding is greater than 80% in the presence of 1000 nM of the compound)
12,"CNC(=O)c1cc(C)nn1Cc1c(-c2ccc(Cl)cc2)nc2ccccn12 [Compound 79, 1-((2-(4-chlorophenyl)imidazo[1,2-a]pyridin-3-yl)methyl)-N,3-dimethyl-1H-pyrazole-5-carboxamide]",+ (percentage of inhibition of central BZD site binding is greater than 50% but less than 80% in the presence of 1000 nM of the compound)
13,"CNC(=O)c1cc(C)n(Cc2c(-c3ccc(Cl)cc3)nc3ccccn23)n1 [Compound 80, 1-((2-(4-chlorophenyl)imidazo[1,2-a]pyridin-3-yl)methyl)-N,5-dimethyl-1H-pyrazole-3-carboxamide]",++ (percentage of inhibition of central BZD site binding is greater than 80% in the presence of 1000 nM of the compound)
14,"CON(C)C(=O)c1ncnn1Cc1c(-c2ccc(Cl)cc2)nc2ccc(Cl)cn12 [Compound 82, 2-[6-Chloro-2-(4-chloro-phenyl)-imidazo[1,2-a]pyridin-3-ylmethyl]-2H-[1,2,4]triazole-3-carboxylic acid methoxy-methyl-amide]",++ (percentage of inhibition of central BZD site binding is greater than 80% in the presence of 1000 nM of the compound)
15,"NC(=O)c1nccn1Cc1c(-c2ccc(Cl)cc2)nc2cccnn12 [Compound 87, 1-((2-(4-chlorophenyl)imidazo[1,2-b]pyridazin-3-yl)methyl)-1H-imidazole-2-carboxamide]",+ (percentage of inhibition of central BZD site binding is greater than 50% but less than 80% in the presence of 1000 nM of the compound)
16,"NC(=O)c1ncnn1Cc1c(-c2ccc(Cl)cc2)nc2cccnn12 [Compound 89, 1-((2-(4-chlorophenyl)imidazo[1,2-b]pyridazin-3-yl)methyl)-1H-1,2,4-triazole-5-carboxamide]",++ (percentage of inhibition of central BZD site binding is greater than 80% in the presence of 1000 nM of the compound)
17,"Cc1ccc(-c2nc3ccc(C)cn3c2Cn2[nH]c(C)cc2=O)cc1 [Compound 91, 1,2-dihydro-3-methyl-1-((6-methyl-2-p-tolyl-H-imidazo[1,2-a]pyridin-3-yl)methyl)pyrazol-5-one]",++ (percentage of inhibition of central BZD site binding is greater than 80% in the presence of 1000 nM of the compound)
18,"Cc1ccc(-c2nc3ccc(C)cn3c2CN2CCN(C)C2=O)cc1 [Compound 92, 1-methyl-3-((6-methyl-2-p-tolylH-imidazo[1,2-a]pyridin-3-yl)methyl)imidazolidin-2-one]",++ (percentage of inhibition of central BZD site binding is greater than 80% in the presence of 1000 nM of the compound)
19,"CCC1=C(C)CN(Cc2c(-c3ccc(C)cc3)nc3ccc(C)cn23)C1=O [Compound 93, 3-ethyl-4-methyl-1-((6-methyl-2-p-tolyl-H-imidazo[1,2-a]pyridin-3-yl)methyl)-1H-pyrrol-2(5H)-one]",++ (percentage of inhibition of central BZD site binding is greater than 80% in the presence of 1000 nM of the compound)
20,"COC1=CC(=O)N(Cc2c(-c3ccc(C)cc3)nc3ccc(C)cn23)C1 [Compound 94, 4-methoxy-1-((6-methyl-2-p-tolyl-H-imidazo[1,2-a]pyridin-3-yl)methyl)-1H-pyrrol-2(5H)-one]",++ (percentage of inhibition of central BZD site binding is greater than 80% in the presence of 1000 nM of the compound)
21,"Cc1ccc(-c2nc3ccc(C)cn3c2CN2CCCCC2=O)cc1 [Compound 95, 1-((6-methyl-2-p-tolyl-H-imidazo[1,2-a]pyridin-3-yl)methyl)piperidin-2-one]",++ (percentage of inhibition of central BZD site binding is greater than 80% in the presence of 1000 nM of the compound)
22,"Cc1ccc(-c2nc3ccc(C)cn3c2Cn2ccccc2=O)cc1 [Compound 96, 1-((6-methyl-2-p-tolyl-H-imidazo[1,2-a]pyridin-3-yl)methyl)pyridin-2(1H)-one]",++ (percentage of inhibition of central BZD site binding is greater than 80% in the presence of 1000 nM of the compound)
23,"Cc1ccc(-c2nc3ccc(C)cn3c2Cn2cccc(C)c2=O)cc1 [Compound 97, 3-methyl-1-((6-methyl-2-p-tolylH-imidazo[1,2-a]pyridin-3-yl)methyl)pyridin-2(1H)-one]",++ (percentage of inhibition of central BZD site binding is greater than 80% in the presence of 1000 nM of the compound)
24,"Cc1ccc(-c2nc3ccc(C)cn3c2CN2C(=O)OC(C)(C)C2=O)cc1 [Compound 101, 5,5-dimethyl-3-((6-methyl-2-p-tolylH-imidazo[1,2-a]pyridin-3-yl)methyl)oxazolidine-2,4-dione]",++ (percentage of inhibition of central BZD site binding is greater than 80% in the presence of 1000 nM of the compound)
25,"Cc1ccc(-c2nc3ccc(C)cn3c2CN2C(=O)CN(C)C2=O)cc1 [Compound 102, 1-methyl-3-((6-methyl-2-p-tolylH-imidazo[1,2-a]pyridin-3-yl)methyl)imidazolidine-2,4-dione]",+ (percentage of inhibition of central BZD site binding is greater than 50% but less than 80% in the presence of 1000 nM of the compound)
26,"O=c1ccccn1Cc1c(-c2ccc(Cl)cc2)nc2ccc(Cl)cn12 [Compound 104, 1-((6-chloro-2-(4-chlorophenyl)H-imidazo[1,2-a]pyridin-3-yl)methyl)pyridin-2(1H)-one]",++ (percentage of inhibition of central BZD site binding is greater than 80% in the presence of 1000 nM of the compound)
